Patent publication US11467158B2, “BRCA1 mutations as predictive markers for topoisomerase inhibitions” (BOSTON MEDICAL CENTER CORPORATION, priority 2012, dated 2022)
“Also recorded” adds a separate entry of the source. Non-standard residues stand in square brackets, D forms with d. No end group written: not given here. pS = N[C@@H](COP(=O)(O)O)C(=O)O

Assays:
[1] = system: topo I; assay: topo I ubiquitination in cells (anti-topoI immunoprecipitation, anti-ubiquitin immunoblot); type: cell-based
Protocol: (§1) Phosphorylated GST-topo I was incubated with purified E1, UbcH5c (E2), and BRCA1/BARD1 (E3) (lane2). Phosphorylated topo I was also incubated with E1 and UbcH5c (E2) only as control (lane 1). Reactions were carried out in ubiquitination buffer at 37° C. for 30 min. The reaction products were analyzed by immunoblot analysis with anti-ubiquitin. […] Immunoprecipitates were analyzed by immunoblot analysis with anti-ubiquitin. […] Control and treated cells were harvested and lysed. Cell lysates were analyzed by immunoblot analysis with anti-topo I (upper panel) and anti-β-actin (lower panel).
(§2) Cells were harvested after designated time and lysed. The cell lysates were analyzed by immunoblot analysis with anti-topo I (upper panel) and anti-β-actin for equal protein loading (lower panel). An infrared secondary antibody was used and a LICOR system was used to visualize the florescence. […] Immunoprecipitates were analyzed by immunoblot analysis with anti-Pan ubiquitin. […] The cell number was counted after 12 hours using a Celigo system. The cells were treated with 10 and 25 nM SN-38 for 72 hours. The cells were counted again using the Celigo system and growth inhibition was determined using a formula described in the materials and methods section.
(§3) Control and treated cells were harvested and lysed. Cell lysates were analyzed by immunoblot analysis with anti-topo I (upper panel) and anti-β-actin (lower panel). […] Immunoprecipitates were analyzed by immunoblot analysis with anti-ubiquitin.
(§4) To further validate the findings in cells the inventors used BRCA1 E3 ligase deficient HCC1937 cells. The cells are sensitive to DNA-damaging agents and have impaired BRCA1 E3 ligase function. The inventors have used HCC1937 cells and stably expressed BRCA1 (HCC1937-BRCA1) to restore E3 ligase function. Both, HCC1937 and HCC1937-BRCA1 cells were treated with CPT for 60 minutes and drug free for 30 minutes in the presence of MG132. Control and CPT treated cells were lysed and subjected to immunoprecipitation with anti-topoI. The immunoprecipitates were analyzed by immunoblot analysis with anti-ubiquitin. […] Topo I is degraded in the response to CPT by ubiquitin proteosomal pathways, and the rate of degradation at least in part determines anti neoplastic activity of the drug. To determine the correlation between topo I degradation and CPT efficacy in HCC1937 and HCC1937-BRCA cells, were treated with […] and topo I degradation (FIG. 2C) and cell growth inhibition assays were performed (FIG. 2D).
(§5) To understand the topo I ubiquitination and CPT response, based on the inventors previous early screen, the inventors selected four triple negative breast cancer cell lines with differential rate of UPP mediated topo I degradation. […] To determine the level of CPT induced ubiquitination, control and treated cells were lysed and cell lysates were subjected to immunoprecipitation with anti-topoI. The immunoprecipitates were analyzed by immunoblot analysis with anti-ubiquitin. […] To understand the possible correlation between ubiquitination dependent topo I degradation and CPT response, cells were treated with different concentration of SN-38 and analyzed for percent growth inhibition. […] The highest percent of growth inhibition was detected in BT20 (FIG. 3C). Taken together, rate of topo I degradation by UPP determines the drug sensitivity in triple negative breast cancer cells.

[2] = system: Walker 256 tumor; settings: experimentally transplanted Walker 256 tumor in rats; cited from earlier work
[3] = system: biosynthesis of nucleic acids; settings: cited from earlier work
[4] = system: HCC1937 cells; assay: percent cell growth inhibition after 72 hours (Celigo); type: cell-based
Protocol: as §1, §3, §4

[5] = system: HCC1937-BRCA1 cells; assay: as above; type: cell-based
Protocol: as §1, §3, §4

[6] = system: leukemia L-1210; settings: experimentally transplanted leukemia L-1210 in mice; cited from earlier work
[7] = system: topo I; assay: topo I degradation in cells (immunoblot with anti-topo I); type: cell-based
Protocol: as §1, §2, §3, §4, §5

[8] = system: HIV-1; settings: acute and chronic infections, in vitro; cited from earlier work
[9] = molecular target: T1, BRCA1-BRCT domain (Homo sapiens, UniProt P38398); assay: fluorescence polarization of Topo I phosphopeptide with GST-BRCT; type: binding; settings: peptide labeled with Alexa Fluor 532, final dilution 1:1000 or 1:500, varying GST-BRCT concentrations
T1 construct: made in house; host or cells: E. coli Rosetta (DE3) pLysS (Novagen)
Protocol: Phosphopeptide labeled with Alexa Fluor 532 was incubated at a final dilution of either 1:1000 or 1:500 with varying concentrations of GST-BRCT or buffer alone. Polarization of the light emitted by the labeled peptide was detected on a Tecan Infinite M1000 pro and is plotted as a function of protein concentration.
An exemplary assay to identify a mutation in the BRCT domain which decreases the binding affinity of the BRCT domain for the phospho-ser10-topo I polypeptide was performed as follows (see FIG. 8): Topo I phosphopeptide NDpSQIEADFRLNDC (SEQ ID NO: 4) was conjugated to Alexa Fluor 532 (Invitrogen) via maleimide reaction with the C-terminal cysteine, as per manufacturer's protocol. Labeled peptide was separated from the reaction mixture by RP-HPLC using C-18 media and eluted with 30% acetonitrile. The partially purified peptide was lyophilized and resuspended in TBS with 1 mM DTT. GST-BRCT was expressed in Rosetta (DE3) pLysS (Novagen) and purified by standard methods. The purified protein was eluted from the GS beads and dialyzed against TBS containing 1 mM DTT and 5% glycerol prior to storage at −80°. […] 20 μl from each dilution was then transferred to each of 4 wells in a 384-well black plate, and FP was read on a Tecan Infinite M1000 pro and plotted as mP as a function of protein concentration.

[10] = system: SUM52 cells; assay: TNBC cell growth inhibition, 72 hours (Celigo); type: cell-based; settings: 10 and 25 nM
Protocol: as §2, §5

[11] = system: BT20 cells; assay: TNBC cell growth inhibition, 72 hours (Celigo); type: cell-based
Protocol: as §2, §5

[12] = system: BT549 cells; assay: TNBC cell growth inhibition, 72 hours (Celigo); type: cell-based
Protocol: as §2, §5

[13] = system: MDAMB231 cells; assay: TNBC cell growth inhibition, 72 hours (Celigo); type: cell-based
Protocol: as §2, with “The cells were treated with 10 and 25 nM SN-38 for 72 hours.” left out
as §5, with “Taken together, rate of topo I degradation by UPP determines the drug sensitivity in triple negative breast cancer cells.” left out

T1 sequence (P38398 1650-1863): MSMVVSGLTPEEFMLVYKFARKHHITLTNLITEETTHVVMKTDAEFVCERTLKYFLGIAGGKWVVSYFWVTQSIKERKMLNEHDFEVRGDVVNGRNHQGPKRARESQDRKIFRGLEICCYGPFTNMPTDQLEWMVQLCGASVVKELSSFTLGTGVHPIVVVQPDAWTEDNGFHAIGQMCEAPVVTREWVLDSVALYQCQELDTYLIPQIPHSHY

Question: For `CC[C@@]1(O)C(=O)OCc2c1cc1n(c2=O)Cc2cc3ccccc3nc2-1` [CPT, camptothecin], which “topo I ubiquitination” value ([1]; BT20 cells) is on record?
Answer: Its value is “no ubiquitination”.

Question: And the “topo I ubiquitination” value ([1]; BT549 cells)?
Answer: Its value is “no ubiquitination”.

Question: And the “topo I ubiquitination” value ([1]; HCC1937 cells (BRCA1 E3 ligase deficient), treated 60 minutes, drug free 30 minutes, MG132)?
Answer: The value was “No ubiquitination; also recorded: fail to ubiquitinate topo I; also recorded: fails to ubiquitinate and degrade topo I”.

Question: And the “topo I ubiquitination” value ([1]; MDAMB231 cells)?
Answer: Its value is “ubiquitinated”.

Question: And the “topo I ubiquitination” value ([1]; SUM52 cells)?
Answer: The value was “ubiquitinated”.

Question: What about the anti-tumor activity [2] of the same compound?
Answer: Its anti-tumor activity is “potent anti-tumor activity”.

Question: And the “inhibitory activity toward the biosynthesis of nucleic acids” value [3]?
Answer: Its value is “strong inhibitory activity”.

Question: And the “cell growth inhibition (sensitivity to the drug)” value [4]?
Answer: The value was “highly sensitive”.

Question: What about the “cell growth inhibition (sensitivity to the drug)” value [5] of the same compound?
Answer: Its value is “resistant”.

Question: And the anti-tumor activity [6]?
Answer: Its anti-tumor activity is “potent anti-tumor activity”.

Question: What about the “topo I degradation” value ([7]; BT20 cells, in 2 hours) of the same compound?
Answer: The value was “not appreciably degraded”.

Question: What about the “topo I degradation” value ([7]; BT549 cells, in 2 hours) of the same compound?
Answer: Its value is “not appreciably degraded”.

Question: And the “topo I degradation” value ([7]; HCC1937-BRCA1 cells)?
Answer: The value was “degrades topo I”.

Question: And the “topo I degradation” value ([7]; HCC1937 cells)?
Answer: The value was “fails to ubiquitinate and degrade topo I”.

Question: And the “time in which topo I was degraded” value ([7]; MDAMB231 cells)?
Answer: Its value is no more than 2 h.

Question: What about the “time in which topo I was degraded” value ([7]; SUM52 cells) of the same compound?
Answer: The value was no more than 2 h.

Question: With `CC[C@@]1(O)C(=O)OCc2c1cc1n(c2=O)Cc2cc3c(CN(C)C)c(O)ccc3nc2-1` [Topotecan] as the compound, how does the “inhibition of HIV-1 infection” value [8] read?
Answer: Its value is “inhibit both acute and chronic HIV-1 infections”.

Question: Which “binding to GST-BRCT (fluorescence polarization)” value [9] does the source give for “NDpSQIEADFRLNDC (SEQ ID NO: 4) (ND[pS]QIEADFRLNDC; listed as Homo sapiens) [Topo I phosphopeptide, topo I phosphopeptide with phosphorylated S10]” here?
Answer: The value was “direct interaction”.

Question: What about the “binding to GST-BRCT (fluorescence polarization)” value ([9]; listed as topo I phosphopeptide) of the same compound?
Answer: Its value is “binds directly”.

Question: Which results are given for `CCc1c2c(nc3ccc(O)cc13)-c1cc3c(c(=O)n1C2)COC(=O)[C@]3(O)CC` [SN-38]?
Answer: topo I ubiquitination ([1]; HCC1937-BRCA1 cells (wild type BRCA1 restored), treated 60 minutes, drug free 30 minutes, MG132): pronounced topo I ubiquitination; cell growth inhibition (sensitivity to the drug) [4]: sensitive; cell growth inhibition (sensitivity to the drug) [5]: sensitive; percent growth inhibition (compared among four TNBC cell lines) [10]: least; percent growth inhibition (compared among four TNBC cell lines) ([11]; BT20 cells): highest; sensitivity to the drug (growth inhibition) ([11]; BT20 cells (printed BT2020)): very sensitive; sensitivity to the drug (growth inhibition) [12]: very sensitive; cell growth under drug ([13]; 50 nM): cells were growing; sensitivity to the drug (growth inhibition) ([13]; 72 hours): remained resistant; topo I degradation ([7]; HCC1937-BRCA1 cells): degrade topo I; topo I degradation ([7]; HCC1937 cells): do not degrade topo I
